This is an account of results in ChEMBL document CHEMBL1137749, “Antifungal unsaturated cyclic Mannich ketones and amino alcohols: study of mechanism of action” (2009).

The test system of test [1] is Candida albicans. Kind of test: Antifungal activity against Candida albicans ATCC 90028 after 48 hrs by macro tube dilution method. The conditions noted are these: ATCC 90028, 48 h. The test is classed as functional.
The next test has as its system Nakaseomyces glabratus. Kind of test: Antifungal activity against Candida glabrata ATCC 3916 after 48 hrs by macro tube dilution method. The test is classed as functional. The conditions noted are these: ATCC 3916, 48 h.
For the next test, the system named is Pichia kudriavzevii. Kind of test: Antifungal activity against Candida krusei ATCC 30068 after 48 hrs by macro tube dilution method. The settings on record: ATCC 30068, 48 h. The test is classed as functional.
A further test deals with Candida parapsilosis. Kind of test: Antifungal activity against Candida parapsilosis ATCC 22019 after 48 hrs by macro tube dilution method. Type of test: functional. The settings on record: Lodderomyces parapsilosis, ATCC 22019, 48 h.
The next test deals with Saccharomyces cerevisiae. Kind of test: Antifungal activity against Saccharomyces cerevisiae after 48 hrs by macro tube dilution method. Type of test: functional.
The next test deals with Aspergillus sp. Put plainly: Antifungal activity against Aspergillus sp. after 48 hrs by macro tube dilution method. Type of test: functional.
In test [2] the test system is Candida albicans. Kind of test: Inhibition of chitin synthase in Candida albicans ATCC 90028 at 1.5 times MIC by liquid scintillation analyzer relative to nikkomycin.
The test system of test [3] is Candida albicans. Put plainly: Antifungal activity against Candida albicans ATCC 90028 assessed as changes in fungal protein expression at 0.5 time MIC after 1 hr by electrophoresis-based microchip technology. The test is classed as functional, organism-based.
Test [4] has as its system Candida albicans. Put plainly: Antifungal activity against Candida albicans ATCC 90028 assessed as changes in fungal protein expression at 2 times MIC after 1 hr by electrophoresis-based microchip technology. Type of test: functional, organism-based.

The structures appear in SMILES notation. Values after ≈ are worked out from the molar mass of the structure shown. Active and inactive are the calls of the source. The rule behind the calls is not given here. Some results are limits rather than exact numbers.

Take `O[C@H]1/C(=C/c2ccccc2)CCCCC[C@H]1CN1CCOCC1` (relative stereo): the MIC was 200 µg/mL (≈ 634 µM) with Candida albicans [1]; 200 µg/mL (≈ 634 µM) against Nakaseomyces glabratus; 200 µg/mL (≈ 634 µM) in the test with Pichia kudriavzevii; 200 µg/mL (≈ 634 µM) in the test on Candida parapsilosis; 100 µg/mL (≈ 317 µM) with Saccharomyces cerevisiae; over 200 µg/mL against Aspergillus sp.. Moreover, the outcome in the test with Candida albicans [2] was Active.
Take `O[C@@H]1/C(=C/c2ccccc2)CC[C@H]1CN1CCCCC1` (relative stereo): the MIC in the test with Candida albicans [1] was 100 µg/mL (≈ 368 µM); in the test with Nakaseomyces glabratus, over 200 µg/mL; in the test on Pichia kudriavzevii it was 50 µg/mL (≈ 184 µM); in the test with Candida parapsilosis, over 200 µg/mL; against Saccharomyces cerevisiae, 50 µg/mL (≈ 184 µM); with Aspergillus sp., over 200 µg/mL.
Turning to `O=C1/C(=C/c2ccccc2)CCC1CN1CCCC1` (configuration not stated), the MIC in the test on Candida albicans [1] was determined as 6.25 µg/mL (≈ 24.5 µM); with Nakaseomyces glabratus it was 12.5 µg/mL (≈ 49 µM); against Pichia kudriavzevii, 6.25 µg/mL (≈ 24.5 µM); with Candida parapsilosis, 6.25 µg/mL (≈ 24.5 µM); in the test with Saccharomyces cerevisiae, 3.12 µg/mL (≈ 12.2 µM); in the test on Aspergillus sp., 50 µg/mL (≈ 196 µM). Also, the outcome in the test with Candida albicans [3] and in the test with Candida albicans [4] was inactive.
As for `COc1ccc(/C=C2\CCCC(CN3CCOCC3)C2=O)cc1OC` (configuration not stated), the MIC was 25 µg/mL (≈ 72.4 µM) with Candida albicans [1]; 100 µg/mL (≈ 289 µM) with Nakaseomyces glabratus; 50 µg/mL (≈ 145 µM) against Pichia kudriavzevii; 50 µg/mL (≈ 145 µM) against Candida parapsilosis; 25 µg/mL (≈ 72.4 µM) in the test on Saccharomyces cerevisiae; over 200 µg/mL against Aspergillus sp..
For the molecule `O=C1/C(=C/c2ccccc2)CCCC1CN1CCOCC1` (configuration not stated), the MIC against Candida albicans [1] was 25 µg/mL (≈ 87.6 µM); in the test with Nakaseomyces glabratus, over 200 µg/mL; against Pichia kudriavzevii it was 25 µg/mL (≈ 87.6 µM); in the test with Candida parapsilosis, 12.5 µg/mL (≈ 43.8 µM); with Saccharomyces cerevisiae, 3.12 µg/mL (≈ 11 µM); against Aspergillus sp. it was over 200 µg/mL.
As to `COc1ccccc1/C=C1\CCC(CN2CCCCC2)C1=O` (configuration not stated), the MIC turned out to be 6.25 µg/mL (≈ 20.9 µM) against Candida albicans [1]; 12.5 µg/mL (≈ 41.7 µM) against Nakaseomyces glabratus; 12.5 µg/mL (≈ 41.7 µM) with Pichia kudriavzevii; 12.5 µg/mL (≈ 41.7 µM) with Candida parapsilosis; 6.25 µg/mL (≈ 20.9 µM) in the test on Saccharomyces cerevisiae; 100 µg/mL (≈ 334 µM) in the test with Aspergillus sp.. For the same molecule, the outcome in the test with Candida albicans [3] and in the test on Candida albicans [4] was inactive.
On to `O=C1/C(=C/c2ccccc2)CCCC1CN1CCCC1` (configuration not stated), for which the MIC worked out at 25 µg/mL (≈ 92.8 µM) against Candida albicans [1]; 25 µg/mL (≈ 92.8 µM) against Nakaseomyces glabratus; 25 µg/mL (≈ 92.8 µM) against Pichia kudriavzevii; 12.5 µg/mL (≈ 46.4 µM) with Candida parapsilosis; 12.5 µg/mL (≈ 46.4 µM) with Saccharomyces cerevisiae; 100 µg/mL (≈ 371 µM) in the test on Aspergillus sp..
Turning to `O[C@H]1/C(=C/c2ccccc2)CCC[C@@H]1CN1CCOCC1` (relative stereo), the MIC is 200 µg/mL (≈ 696 µM) against Candida albicans [1]; over 200 µg/mL in the test with Nakaseomyces glabratus; 200 µg/mL (≈ 696 µM) against Pichia kudriavzevii; over 200 µg/mL with Candida parapsilosis; 200 µg/mL (≈ 696 µM) against Saccharomyces cerevisiae; over 200 µg/mL against Aspergillus sp..
In the case of `COc1ccc(/C=C2\CCC(CN3CCOCC3)C2=O)cc1` (configuration not stated), the MIC with Candida albicans [1] came to 3.12 µg/mL (≈ 10.4 µM); with Nakaseomyces glabratus it was 6.25 µg/mL (≈ 20.7 µM); in the test on Pichia kudriavzevii, 12.5 µg/mL (≈ 41.5 µM); against Candida parapsilosis it was 6.25 µg/mL (≈ 20.7 µM); in the test on Saccharomyces cerevisiae it was 1.56 µg/mL (≈ 5.18 µM); in the test on Aspergillus sp., 200 µg/mL (≈ 664 µM). Besides, the result in the test with Candida albicans [3] and with Candida albicans [4] was inactive.
In the case of `O=C1/C(=C/c2ccccc2)CCCCCC1CN1CCOCC1` (configuration not stated), the MIC was over 200 µg/mL against Candida albicans [1]; over 200 µg/mL in the test with Nakaseomyces glabratus; over 200 µg/mL in the test on Pichia kudriavzevii; over 200 µg/mL against Candida parapsilosis; 200 µg/mL (≈ 638 µM) against Saccharomyces cerevisiae; over 200 µg/mL against Aspergillus sp.. In addition, the inhibition entry in the test with Candida albicans [2] is “Active”.
Consider `O[C@H]1/C(=C/c2ccccc2)CCCC[C@H]1CN1CCCCC1` (relative stereo), for which the MIC is over 200 µg/mL in the test with Candida albicans [1]; 200 µg/mL (≈ 668 µM) against Nakaseomyces glabratus; 200 µg/mL (≈ 668 µM) against Pichia kudriavzevii; over 200 µg/mL with Candida parapsilosis; 50 µg/mL (≈ 167 µM) with Saccharomyces cerevisiae; 200 µg/mL (≈ 668 µM) in the test with Aspergillus sp..
Consider `O[C@H]1/C(=C/c2ccccc2)CCCCC[C@H]1CN1CCCCC1` (relative stereo), for which the MIC was 100 µg/mL (≈ 319 µM) in the test on Candida albicans [1]; 50 µg/mL (≈ 159 µM) with Nakaseomyces glabratus; 6.25 µg/mL (≈ 19.9 µM) with Pichia kudriavzevii; 50 µg/mL (≈ 159 µM) against Candida parapsilosis; 6.25 µg/mL (≈ 19.9 µM) in the test on Saccharomyces cerevisiae; 50 µg/mL (≈ 159 µM) against Aspergillus sp.. Further, in the test with Candida albicans [2], the result was inactive.
For `O[C@H]1/C(=C/c2ccccc2)CCC[C@H]1CN1CCOCC1` (relative stereo), the MIC in the test on Candida albicans [1], with Nakaseomyces glabratus, against Pichia kudriavzevii, against Candida parapsilosis, in the test with Saccharomyces cerevisiae and against Aspergillus sp. was over 200 µg/mL throughout.
Regarding `O[C@H]1/C(=C/c2ccccc2)CCCC[C@@H]1CN1CCCCC1` (relative stereo), the MIC in the test with Candida albicans [1] was 50 µg/mL (≈ 167 µM); against Nakaseomyces glabratus, 100 µg/mL (≈ 334 µM); against Pichia kudriavzevii, 100 µg/mL (≈ 334 µM); against Candida parapsilosis it was 100 µg/mL (≈ 334 µM); against Saccharomyces cerevisiae, 25 µg/mL (≈ 83.5 µM); with Aspergillus sp., over 200 µg/mL.
As for `O[C@H]1/C(=C/c2ccccc2)CCCC[C@H]1CN1CCOCC1` (relative stereo), the minimum inhibitory concentration (MIC) against Candida albicans [1], against Nakaseomyces glabratus, with Pichia kudriavzevii, in the test on Candida parapsilosis, in the test on Saccharomyces cerevisiae and against Aspergillus sp. was over 200 µg/mL throughout.
`CC1CCN(CC2CCC/C(=C\c3ccccc3)C2=O)CC1` (configuration not stated): the MIC against Candida albicans [1] stood at 12.5 µg/mL (≈ 42 µM); against Nakaseomyces glabratus it was 100 µg/mL (≈ 336 µM); with Pichia kudriavzevii, 100 µg/mL (≈ 336 µM); in the test with Candida parapsilosis, 25 µg/mL (≈ 84 µM); in the test with Saccharomyces cerevisiae, 12.5 µg/mL (≈ 42 µM); in the test with Aspergillus sp., 100 µg/mL (≈ 336 µM).
For `Cc1ccc(/C=C2\CCCC(CN3CCOCC3)C2=O)cc1` (configuration not stated), the MIC with Candida albicans [1] was 100 µg/mL (≈ 334 µM); against Nakaseomyces glabratus, over 200 µg/mL; against Pichia kudriavzevii, 200 µg/mL (≈ 668 µM); in the test with Candida parapsilosis it was 25 µg/mL (≈ 83.5 µM); in the test with Saccharomyces cerevisiae, 3.12 µg/mL (≈ 10.4 µM); in the test with Aspergillus sp., over 200 µg/mL.
For `COc1cc(/C=C2\CCC(CN3CCCCC3)C2=O)cc(OC)c1OC` (configuration not stated), the MIC is 12.5 µg/mL (≈ 34.8 µM) against Candida albicans [1]; 100 µg/mL (≈ 278 µM) against Nakaseomyces glabratus; 12.5 µg/mL (≈ 34.8 µM) against Pichia kudriavzevii; 50 µg/mL (≈ 139 µM) in the test on Candida parapsilosis; 25 µg/mL (≈ 69.5 µM) with Saccharomyces cerevisiae; 100 µg/mL (≈ 278 µM) against Aspergillus sp..
On to `Cc1ccc(/C=C2\CCC(CN3CCOCC3)C2=O)cc1` (configuration not stated), for which the minimum inhibitory concentration (MIC) in the test on Candida albicans [1] was determined as 6.25 µg/mL (≈ 21.9 µM); against Nakaseomyces glabratus, 3.12 µg/mL (≈ 11 µM); in the test with Pichia kudriavzevii, 12.5 µg/mL (≈ 43.8 µM); in the test on Candida parapsilosis, 6.25 µg/mL (≈ 21.9 µM); with Saccharomyces cerevisiae it was 1.56 µg/mL (≈ 5.47 µM); in the test on Aspergillus sp., 25 µg/mL (≈ 87.6 µM).
In the case of `CC1CCN(C[C@H]2CCC/C(=C\c3ccccc3)[C@@H]2O)CC1` (relative stereo), the MIC against Candida albicans [1] was over 200 µg/mL; with Nakaseomyces glabratus, over 200 µg/mL; with Pichia kudriavzevii, over 200 µg/mL; in the test on Candida parapsilosis, over 200 µg/mL; in the test with Saccharomyces cerevisiae, 100 µg/mL (≈ 334 µM); against Aspergillus sp., over 200 µg/mL.
Consider `COc1ccc(/C=C2\CCCC(CN3CCOCC3)C2=O)cc1` (configuration not stated), for which the MIC was 25 µg/mL (≈ 79.3 µM) in the test on Candida albicans [1]; over 200 µg/mL in the test with Nakaseomyces glabratus; 25 µg/mL (≈ 79.3 µM) against Pichia kudriavzevii; 12.5 µg/mL (≈ 39.6 µM) with Candida parapsilosis; 12.5 µg/mL (≈ 39.6 µM) in the test with Saccharomyces cerevisiae; over 200 µg/mL against Aspergillus sp..
As for `COc1cccc(/C=C2\CCC(CN3CCCCC3)C2=O)c1` (configuration not stated), the minimal inhibitory concentration (MIC) in the test with Candida albicans [1] came to 12.5 µg/mL (≈ 41.7 µM); in the test on Nakaseomyces glabratus, 12.5 µg/mL (≈ 41.7 µM); in the test with Pichia kudriavzevii, 12.5 µg/mL (≈ 41.7 µM); against Candida parapsilosis, 6.25 µg/mL (≈ 20.9 µM); in the test with Saccharomyces cerevisiae, 6.25 µg/mL (≈ 20.9 µM); with Aspergillus sp. it was 100 µg/mL (≈ 334 µM).
As to `O=C1/C(=C/c2ccccc2)CCC1CN1CCOCC1` (configuration not stated), the MIC against Candida albicans [1] stood at 3.12 µg/mL (≈ 11.5 µM); against Nakaseomyces glabratus, 6.25 µg/mL (≈ 23 µM); in the test on Pichia kudriavzevii, 3.12 µg/mL (≈ 11.5 µM); against Candida parapsilosis, 3.12 µg/mL (≈ 11.5 µM); against Saccharomyces cerevisiae, 0.8 µg/mL (≈ 2.95 µM); with Aspergillus sp., 50 µg/mL (≈ 184 µM).
